{
  "source": "patent US7910568B2",
  "about": "“Derivatives of 4- or 5-aminosalicylic acid” (Antibe Therapeutics Inc., priority 2005, dated 2011)",
  "key": {"[1]": {"assay": "Viability of HT-29 human colon cancer cells, MTT assay", "type": "cell-based", "conditions": "HT-29 colon cancer cells, 72 h exposure, HT-29, MTT, read-out: Cell viability rate as a percent of the vehicle (DMSO)-treated cells", "protocol": "HT-29 cells were grown in culture using standard methods. The cells were exposed to vehicle (DMSO), mesalamine or Compound XXXV. Concentrations ranging from 0.1 to 10 μM were tested, with each concentration tested in 6 wells. At the end of 72 h of exposure to the test drugs, cell viability was measured using the MTT [3-(4,5-dimethylthiaxol-2-yl)-2,5-diphenyltetrazolium bromide] assay (Carmichael et al. (1978) Cancer Res. 47, 936-942), incorporated herein by reference."}, "[2]": {"system": "myeloperoxidase (MPO) activity", "assay": "TNBS-induced colitis in mice, colonic myeloperoxidase (MPO) activity as marker of granulocyte infiltration", "type": "in vivo", "protocol": "(§1) A standard experimental animal model of colitis induced by intracolonic administration of 2,4,6-trinitrobenzene sulfonic acid (TNBS) to mice is used in the following example. A detailed description of this model has been published (Santucci et al. (2003) Gastroenterology 124:1381-94) and is incorporated herein by reference. Briefly, 6-8 week old Balb/c mice were given TNBS intracolonically at a dose of 1.5 mg in 0.1 mL of 30% ethanol. The mice were randomized to the various treatment groups (n=6 per group). Beginning one hour later and continuing every 12 h for 5 days, the mice were treated orally with vehicle (1% carboxymethylcellulose (CMC)), 5-ASA (mesalamine) (25, 50 or 75 mg/kg) or with equimolar doses of 2-hydroxy-5-amino-benzoic acid 4-(thioxo-5H-[1,2]dithiol-3-yl)-phenyl ester hydrochloride (Compound XXXV) (130 mg/kg), or with […] (100 mg/kg), 50% (66 mg/kg) and 25% (33 mg/kg) of that dose. The mice were evaluated (blindly) on the final day of the study for the presence of diarrhea and fecal occult blood, and their body weights were measured. […] After sacrifice, a sample of the colon was excised for measurement of myeloperoxidase (MPO) activity, as a marker of granulocyte infiltration. All results were compared to those obtained with healthy mice as well."}, "IL-10 mRNA": {"system": "IL-10 mRNA", "assay": "TNBS-induced colitis in mice, colonic IL-10 mRNA by RT-PCR", "type": "in vivo", "conditions": "dose equimolar to 50 mg/kg mesalamine; normalized to GAPDH, ratio to healthy controls", "protocol": "(§2) The same model was used as described above. In this example, the effects of mesalamine (50 mg/kg) were compared to those of equimolar doses of Compound XXXV. In addition to measuring the severity of colitis by measuring disease activity score and MPO activity, tissues were processed for measurement of a number of genes for inflammatory cytokines and other mediators.\n(§3) In particular, mRNA expression in mice of tumour necrosis factor-alpha (TNF-α), interferon gamma (IFN-γ), colonic interleukin (IL)-1, IL-2, IL-10, IL-12 p40, RANTES, cyclooxygenase (COX)-1, COX-2, constitutive endothelial nitric oxide synthase (eNOS), and inducible NOS (iNOS) was measured as described in Wallace et al. (1999) Gastroenterology 117: 557-566, incorporated herein by reference.\n(§4) Briefly, reverse transcription-polymerase chain reaction (RT-PCR) was used to detect and quantify mRNA of the particular cytokine/chemokine/enzyme. Glyceraldehyde-3-phosphate dehydrogenase (GAPDH) was used as the “housekeeping gene” for mRNA expression (i.e., as an internal control). For each sample, the ratio of the amplification of the target gene to the amplification of GAPDH (expression of each is measured by performing densitometry on gels) was obtained. […]"}, "COX-2 mRNA": {"system": "COX-2 mRNA", "assay": "TNBS-induced colitis in mice, colonic COX-2 mRNA by RT-PCR", "type": "in vivo", "conditions": "dose equimolar to 50 mg/kg mesalamine; FIG. 13", "protocol": "as §2, §3, §4"}, "colonic smooth muscle": {"system": "colonic smooth muscle", "assay": "Rat colorectal distension, intrarectal pressure / compliance of the colo-rectum", "type": "in vivo", "conditions": "100 mg/kg i.p.; FIG. 16(b)", "excerpt": "In the testing day, rats were sedated with ether inhalation and a 2 cm long latex balloon was inserted intrarectally 2 cm from the anal verge and fixed at the base of the tail. The balloon was connected via a double-barreled cannula to a pressure transducer to continuously monitoring the rectal pressure by a computer (PowerLab PC, A.D. Instruments, Milford, Mass., USA) and to a syringe for inflation/deflation of the balloon. The rats were then housed in a small cage (20×8×8 cm) on an elevated Plexiglas™ platform and allowed to wake up and adapt for 1 hour. After recovery from sedation, animals underwent the CRD procedure and behavioral responses were tested. The night before the experiments, the balloons were inflated and left overnight so the latex stretched and the balloons became compliant. CRD of 20 seconds, performed every 5 minutes, was applied in increment of 0.4 ml starting from 0.4 ml up to 1.6 ml water. […] Behavioral responses during the first and the second set of CRD were assessed and compared. To determine the effect of mesalamine or Compound XXXV on colonic smooth muscle, the compliance of the colo-rectum during CRD was obtained from intracolo-rectal volume and pressure and expressed as mL/mmHg. […]"}, "COX-1 mRNA": {"system": "COX-1 mRNA", "assay": "TNBS-induced colitis in mice, colonic COX-1 mRNA by RT-PCR", "type": "in vivo", "conditions": "dose equimolar to 50 mg/kg mesalamine; FIG. 13", "protocol": "as §2, §3, §4"}, "[3]": {"system": "TNF-α, IFN-γ, IL-1, IL-2, IL-12 p40, RANTES mRNA", "assay": "TNBS-induced colitis in mice, colonic mRNA of pro-inflammatory cytokines and chemokines by RT-PCR", "type": "in vivo", "conditions": "dose equimolar to 50 mg/kg mesalamine; normalized to GAPDH, ratio to healthy controls", "protocol": "as §2, §3, §4"}, "[4]": {"assay": "H2S generation in buffer, liver homogenate and liver homogenate with PAG, sulfide sensitive electrode", "type": "in vitro ADME, rat", "conditions": "1 mM compound, FIG. 21"}, "TNBS-induced colitis": {"system": "TNBS-induced colitis", "assay": "TNBS-induced colitis in mice, disease activity score", "type": "in vivo", "protocol": "as §1"}, "eNOS mRNA": {"system": "eNOS mRNA", "assay": "TNBS-induced colitis in mice, colonic eNOS mRNA by RT-PCR", "type": "in vivo", "conditions": "dose equimolar to 50 mg/kg mesalamine; FIG. 14", "protocol": "as §2, §3, §4"}},
  "data": [
    {"smiles": "Nc1ccc(O)c(C(=O)Oc2ccc(-c3cc(=S)ss3)cc2)c1", "note": "[Compound XXXV, 5-Amino-2-hydroxy-benzoic acid 4-(5-thioxo-5H-[1,2]dithiol-3-yl)-phenyl ester]", "values": [
      {"measurement": "viability at 72 h, 0.1 µM", "setting": "[1]; 0.1 μM", "value": "88.4 ± 2.9", "unit": "%"},
      {"measurement": "viability at 72 h, 1 µM", "setting": "[1]; 1 μM", "value": "87.3 ± 2.3", "unit": "%"},
      {"measurement": "viability at 72 h, 10 µM", "setting": "[1]; 10 μM", "value": "79.6 ± 1.9", "unit": "%"},
      {"measurement": "MPO activity (granulocyte infiltration)", "setting": "[2]; Compound XXXV 130 mg/kg, FIG. 4", "value": "significantly reduced inflammation"},
      {"measurement": "MPO activity", "setting": "[2]; dose-ranging, oral every 12 h for 5 days, highest doses tested, FIG. 2", "value": "significantly reduced (almost in half)"},
      {"measurement": "Expression of IL-10 mRNA", "setting": "IL-10 mRNA", "value": "did not suppress expression of IL-10 mRNA"},
      {"measurement": "COX-2 mRNA expression", "setting": "COX-2 mRNA", "value": "suppressed"},
      {"measurement": "Intrarectal pressure", "setting": "colonic smooth muscle", "value": "successfully reduced intrarectal pressure"},
      {"measurement": "COX-1 mRNA expression", "setting": "COX-1 mRNA", "value": "suppressed"},
      {"measurement": "Expression of mRNA for pro-inflammatory cytokines and chemokines", "setting": "[3]", "value": "suppressed expression of mRNA for several pro-inflammatory cytokines and chemokines"},
      {"measurement": "Effect of PAG (DL-propargylglycine) on H2S generation in liver homogenate", "setting": "[4]; PAG 2 mM, inhibitor of cystathionine γ-lyase", "value": "lack of effect"},
      {"measurement": "H2S release in buffer", "setting": "[4]; potassium phosphate buffer pH 7.4, 37° C.", "value": "release H2S spontaneously (in buffer)"},
      {"measurement": "H2S release in liver homogenate compared with buffer", "setting": "[4]; rat liver homogenate 10% (wt/vol)", "value": "greater when in the presence of tissue"},
      {"measurement": "Disease Activity Index", "setting": "TNBS-induced colitis; Compound XXXV 130 mg/kg vs mesalamine 50 mg/kg, ADT-OH 80 mg/kg and their mixture, FIG. 3", "value": "almost twice as effective as either mesalamine alone, ADT-OH alone or a mixture of mesalamine and ADT-OH"},
      {"measurement": "Every endpoint of FIGS. 7-14 (MPO activity, disease activity score, colonic mRNA expression)", "setting": "TNBS-induced colitis; dose equimolar to 50 mg/kg mesalamine", "value": "superior to mesalamine in every endpoint"},
      {"measurement": "Disease activity score", "setting": "TNBS-induced colitis; dose-ranging, oral every 12 h for 5 days, equimolar doses of 50 mg/kg and 75 mg/kg mesalamine, FIG. 1", "value": "superior to mesalamine in reducing the activity score"},
      {"measurement": "eNOS mRNA expression", "setting": "eNOS mRNA", "value": "suppressed"}
    ]}
  ]
}
